Data on 2 molecules can be found in patent US8673866B2, “Stabilized formulation for oral administration of therapeutic agents and related methods” (The University of British Columbia, priority 2009, dated 2014).

Where “and” joins values, the source holds several entries; their conditions need not be identical. Identical values can stand only once.

The conditions of series [1]: oral; cited from earlier work.
For series [2] the following is noted: crystalline; cited from earlier work.
The test system of a further series is Leishmania. The following applies: visceral leishmaniasis, IV administration; cited from earlier work.
Another series concerns Leishmania donovani LV82. In words: Visceral leishmaniasis-infected murine model (liver LDU, BALB/c mice). It is filed as in vivo. Here is the method:
(§1) To determine the anti-leishmanial activity of a representative oral AmpB formulation, the following studies were completed. BALB/c mice were intravenously infected with 5×10^7 Leishmania donovani LV82 promastigotes (obtained by culturing amastigotes taken directly from the spleen of an infected hamster) seven days prior to treatment. Following the seven days, mice were either administered five daily doses of miltefosine at 3 mg/kg po, or Formulation A at 2.5, 5, and 10 mg/kg po bid for five consecutive days or 20 mg/kg po qd for five consecutive days. Appropriate vehicle controls were also assessed. Animals were sacrificed 14 days post infection and Leishman-Donovan units (LDU) were assessed in livers of mice post mortem via microscopic enumeration of Giemsa-stained liver smears

The nature of series [3]: Body and organ weights in the murine VL model. It is filed as in vivo, BALB/c mice. Here is the method:
as §1

The mark [4] stands for this setting: 3 mg/kg p.o. qd, individual mice.

Regarding `C[C@@H]1[C@H](O)[C@@H](C)/C=C/C=C/C=C/C=C/C=C/C=C/C=C/[C@H](O[C@@H]2O[C@H](C)[C@@H](O)[C@H](N)[C@@H]2O)C[C@@H]2O[C@](O)(C[C@@H](O)C[C@@H](O)[C@H](O)CC[C@@H](O)C[C@@H](O)CC(=O)O[C@H]1C)C[C@H](O)[C@H]2C(=O)O` (relative stereo) [amphotericin B, [1R-(1R*,3S*,5R*,6R*,9R*,11R*,15S*,16R*,17R*,18S*,19E,21E,23E,25E, 27E,29E,31E,33R*,35S*,36R*,37S,)]-33-[(3-amino-3,6-dideoxy-β-D-mannopyranosyl)oxy]1,3,5,6,9,11,17,37-octahydroxy-15,16,18-trimethyl-13-oxo-14,39-dioxabicyclo-[33.3.1]nonatriaconta-19,21,23,25,27,29,31-heptaene-36-carboxylic acid], the bioavailability result in series [1] is “negligible”. For the same molecule, the solubility in water entry in series [2] is given as “insoluble”. The cure rate with Leishmania is recorded as 97%.
On to `CCCCCCCCCCCCCCCCOP(=O)([O-])OCC[N+](C)(C)C` [Miltefosine, miltefosine], for which the “LDU mean ± SD” value with Leishmania donovani LV82 (3 mg/kg p.o. qd, group mean (n=4)) is 1537.604. The LDU with Leishmania donovani LV82 (setting [4]) was 1581.58 and 1431.131 and 1736.921 and 1400.783. In addition, the “# of amastigotes per 200 nuclei” value with Leishmania donovani LV82 (3 mg/kg p.o. qd, liver smears, individual mice) was 286 and 283 and 301 and 262. Further, in the series with Leishmania donovani LV82 (3 mg/kg, p.o. qd), the “% Reduction compared to Vehicle control (Average)” value is listed as 51.7% and the “% Reduction compared to water control (Average)” value came out at 49.3%. Moreover, in the series with Leishmania donovani LV82 (five daily doses at 3 mg/kg po), the “inhibition of liver parasites” value was 47.5±7.0%. Moreover, the “Body Weight” value in series [3] (setting [4]) is 19.8 g (2×) and 18.8 g and 18.5 g. Besides, in series [3] (3 mg/kg, p.o. qd), the Mean Body Weight Post-treatment was determined as 19.2 g and the Mean Body Weight Pre-treatment was 19.3 g.
